The values below come from patent US20260083864A1, “CONTRAST AGENTS FOR USE IN DIAGNOSTIC COMPUTED TOMOGRAPHY IMAGING” (Bayer Aktiengesellschaft, priority 2022, published 2026).

Data set [1] can be described thus: Biliary elimination in bile duct cannulated (BDC) rats. The note with it: 0.1 mmol Gd/kg bw i.v.
Method: All animals are initially anesthetized using a body weight-adjusted intramuscular injection of a mixture (1+2) of xylazine hydrochloride (20 mg/mL, Rompun 2%, Bayer Vital GmbH, Leverkusen) and ketamine hydrochloride (100 mg/mL, Ketavet, Pfizer, Pharmacia GmbH, Berlin) using 1 mL/kg body weight. The continuous anesthesia of the animals is achieved by the intravenous injection of 1.5 mL per hour (Braun perfusor infusion of 1+2, 1:20 saline, xylazine hydrochloride 20 mg/mL, Rompun 2%, Bayer Vital GmbH, Leverkusen and ketamine hydrochloride 100 mg/mL, Ketavet, Pfizer, Pharmacia GmbH, Berlin) via tail vein (Introcan, 24G, yellow). The animals received 0.1 mmol Gd/kg bw as intravenous bolus injection via tail vein (50 mmol Gd/L formulation). Bile was sampled 0-0.5 h, 0.5-1 h, 1-2 h, 2-3 h und 3-4 h post injection. […] The bile fractions (n=3 times 10 μL) were dried for 2 h at 90° C. and 50 μL 65% nitric acid (HNO3, Fa. Fisher, Optima Grade #1219010) and 30 μL hydrogen peroxide 30% (H2O2 Fa VWR Chemicals, AnalaR NORMAPUR, #18J024022) were added and processed in microwave oven (5 cycles: 5 min 40W, 5 min 120W, 10 min 200W, 10 min 320W and 25 min 400W, Fa. CEM, Mars5 Xpress).
For data set [2] the following is noted: reference compounds, 1.5 T, 37° C., from Rohrer et al.; cited from earlier work.
For data set [3] the following is noted: reference compounds, 1.5 T, 37° C., bovine plasma instead of human plasma, from Rohrer et al.; cited from earlier work.

`CCOc1ccc(CCOCC(C(=O)O)N2CCN(CC(=O)[O-])CCN(CC(=O)[O-])CCN(CC(=O)[O-])CC2)cc1.[Gd+3]` (stereo not shown) [Example 1, gadolinium 2,2′,2″-(10-{1-carboxy-2-[2-(4-ethoxyphenyl)ethoxy]ethyl}-1,4,7,10-tetraazacyclododecane-1,4,7-triyl)triacetate]: the “Biliary excretion, % of injected dose, Mean ± SD (cumulative)” value amounted to 55.5 ± 1.7% in data set [1] (bile fraction 0-0.5 h); 62.6 ± 0.7% in data set [1] (bile fraction 0.5-1 h); 65.1 ± 1.3% in data set [1] (bile fraction 1-2 h); 65.6 ± 1.6% in data set [1] (bile fraction 2-3 h); 65.8 ± 1.7% in data set [1] (bile fraction 3-4 h).

With `CCOc1ccc(CC(CN(CCN(CC(=O)[O-])CC(=O)[O-])CC(=O)[O-])N(CC(=O)[O-])CC(=O)[O-])cc1.[Gd+3].[Na+].[Na+]` (stereo not shown) [RC1, gadoxetate disodium, reference compound], in data set [2], the r1 water is 3.3 L/mmol/s. Moreover, the “r1 plasma (r1 human plasma)” value in data set [3] is 5.2 L/mmol/s.
